The target of data set [1] is T1, Cholesterol side-chain cleavage enzyme, mitochondrial (Bos taurus, UniProt P00189).
T1 sequence (P00189 whole entry): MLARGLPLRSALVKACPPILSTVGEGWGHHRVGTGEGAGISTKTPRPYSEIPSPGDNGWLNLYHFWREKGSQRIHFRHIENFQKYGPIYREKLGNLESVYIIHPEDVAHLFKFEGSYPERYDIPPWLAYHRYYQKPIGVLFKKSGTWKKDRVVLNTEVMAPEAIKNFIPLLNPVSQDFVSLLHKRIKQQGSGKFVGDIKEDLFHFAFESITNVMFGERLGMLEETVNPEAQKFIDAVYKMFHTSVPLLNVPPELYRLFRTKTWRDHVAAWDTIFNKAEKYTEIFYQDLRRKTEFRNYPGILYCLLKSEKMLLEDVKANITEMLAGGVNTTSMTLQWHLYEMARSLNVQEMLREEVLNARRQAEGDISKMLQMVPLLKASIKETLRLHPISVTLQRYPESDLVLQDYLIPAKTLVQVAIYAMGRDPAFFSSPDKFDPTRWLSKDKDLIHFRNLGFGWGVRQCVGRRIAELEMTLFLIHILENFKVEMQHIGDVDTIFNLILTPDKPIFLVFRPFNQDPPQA
Briefly: Inhibition of bovine adrenal desmolase at 25 uM. Conditions: cattle; for Inhibition: 25 µM.

Another data set addresses T2, Aromatase (Homo sapiens, UniProt P11511).
T2 sequence (P11511 whole entry): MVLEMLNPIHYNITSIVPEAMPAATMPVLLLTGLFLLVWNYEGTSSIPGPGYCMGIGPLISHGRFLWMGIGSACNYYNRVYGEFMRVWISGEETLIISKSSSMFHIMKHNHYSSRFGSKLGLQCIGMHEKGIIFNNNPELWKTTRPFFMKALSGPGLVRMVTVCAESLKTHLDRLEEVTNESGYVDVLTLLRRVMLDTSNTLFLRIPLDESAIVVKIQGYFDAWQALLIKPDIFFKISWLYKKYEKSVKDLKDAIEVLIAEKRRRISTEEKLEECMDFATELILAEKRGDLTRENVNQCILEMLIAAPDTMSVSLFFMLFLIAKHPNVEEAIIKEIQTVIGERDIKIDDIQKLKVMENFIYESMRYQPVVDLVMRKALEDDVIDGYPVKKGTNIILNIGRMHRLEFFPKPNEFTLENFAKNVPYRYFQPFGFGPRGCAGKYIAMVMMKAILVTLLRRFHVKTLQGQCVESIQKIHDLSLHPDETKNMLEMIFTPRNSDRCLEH

The target of data set [2] is T1, Cholesterol side-chain cleavage enzyme, mitochondrial. Briefly: Inhibition of bovine adrenal desmolase.

Description for Aromatase: Concentration inhibiting Aromatase

Compound `CC[C@@]1(c2ccc(N)cc2)CCC(=O)NC1=O` came in with an inhibition at 25 µM in data set [1] of 36%.
Regarding `CC[C@]1(c2ccc(N)cc2)CCC(=O)NC1=O`, the inhibition at 25 µM in data set [1] is 67%.
On Aromatase, `Nc1ccc(C2(C3CCCC3)CCC(=O)NC2=O)cc1` (centres undefined) showed an IC50 of 1.2 µM. In data set [1], this compound registered an inhibition at 25 µM of 59%.
Consider `Nc1ccc(C2(C3CCCCC3)CCC(=O)NC2=O)cc1` (single isomer, unassigned; (+)), for which the IC50 against Aromatase is 0.15 µM; in data set [2], 82 µM. In addition, in data set [1], the Inhibition is 19%.
Consider `Nc1ccc(C2(C3CCCCC3)CCC(=O)NC2=O)cc1` (single isomer, unassigned; (-)), for which, at Aromatase, the IC50 was 4.6 µM. In addition, the Inhibition in data set [1] was found to be 39%.
Consider `Nc1ccc(C2(C3CCCCC3)CCC(=O)NC2=O)cc1` (stereo in doubt; 2), for which the IC50 at Aromatase is 0.3 µM; in data set [2] it was 67 µM. This compound came in with an Inhibition in data set [1] of 31%.
`CCC1(c2ccc(N)cc2)CCC(=O)NC1=O` (centres undefined) [AMINOGLUTETHIMIDE] displayed an inhibition at 25 µM in data set [1] of 57%. The compound further returned an IC50 in data set [2] of 29 µM.

The values above are taken from ChEMBL document CHEMBL1126077 (J Med Chem, 1992).
